Results: ChEMBL document CHEMBL1255556, “6-Alkoxyisoindolin-1-one based dopamine D2 partial agonists as potential antipsychotics” (Bioorg Med Chem Lett, 2010)

Legend:
[1] = molecular target: 5-hydroxytryptamine receptor 2A (Homo sapiens, UniProt P28223); assay: Binding affinity to human 5HT2A receptor
[2] = molecular target: Voltage-gated inwardly rectifying potassium channel KCNH2 (Homo sapiens, UniProt Q12809)
Description: Displacement of [3H]dofetilide from human ERG

[3] = molecular target: T1, 5-hydroxytryptamine receptor 1A (Homo sapiens, UniProt P08908); assay: biochemical
T1 sequence (P08908 whole entry): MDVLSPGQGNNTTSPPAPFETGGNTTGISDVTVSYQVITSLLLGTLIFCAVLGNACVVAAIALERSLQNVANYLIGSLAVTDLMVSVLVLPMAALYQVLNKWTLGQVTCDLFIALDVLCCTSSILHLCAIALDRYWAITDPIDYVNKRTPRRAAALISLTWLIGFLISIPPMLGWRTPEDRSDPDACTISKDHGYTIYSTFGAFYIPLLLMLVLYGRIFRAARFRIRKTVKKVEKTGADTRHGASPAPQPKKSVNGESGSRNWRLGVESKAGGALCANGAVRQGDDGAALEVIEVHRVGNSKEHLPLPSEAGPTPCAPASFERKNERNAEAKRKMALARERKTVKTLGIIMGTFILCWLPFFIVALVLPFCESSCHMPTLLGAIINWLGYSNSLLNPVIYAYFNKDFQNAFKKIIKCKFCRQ
Description: Displacement of [3H]-8-OH-DPAT from human 5HT1A receptor expressed in HeLa cells

[4] = molecular target: T1, 5-hydroxytryptamine receptor 1A; assay: Binding affinity to human 5HT1A receptor expressed in HeLa cells by scintillation proximity assay; format: cell-based
[5] = molecular target: T2, Sodium-dependent serotonin transporter (Homo sapiens, UniProt P31645); assay: Displacement of [3H]-citalopram from human serotonin transporter expressed in HEK 293 cells; format: cell-based, HEK293
T2 sequence (P31645 whole entry): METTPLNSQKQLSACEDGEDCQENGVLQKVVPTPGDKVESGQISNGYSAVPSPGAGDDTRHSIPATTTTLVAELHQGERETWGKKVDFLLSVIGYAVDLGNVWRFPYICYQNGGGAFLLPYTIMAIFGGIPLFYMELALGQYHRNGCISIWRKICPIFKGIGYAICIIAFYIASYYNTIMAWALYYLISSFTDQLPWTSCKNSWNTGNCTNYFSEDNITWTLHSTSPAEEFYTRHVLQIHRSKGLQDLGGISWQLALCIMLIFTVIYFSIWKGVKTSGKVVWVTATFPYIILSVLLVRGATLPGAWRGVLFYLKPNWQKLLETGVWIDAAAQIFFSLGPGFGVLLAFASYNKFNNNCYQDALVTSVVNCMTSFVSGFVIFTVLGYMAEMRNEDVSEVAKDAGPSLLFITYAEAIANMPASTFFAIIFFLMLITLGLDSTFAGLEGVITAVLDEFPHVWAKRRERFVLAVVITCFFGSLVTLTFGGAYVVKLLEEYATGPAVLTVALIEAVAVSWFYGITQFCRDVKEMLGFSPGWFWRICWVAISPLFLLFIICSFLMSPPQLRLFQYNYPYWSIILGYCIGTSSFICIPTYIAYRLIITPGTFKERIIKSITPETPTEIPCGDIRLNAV

[6] = molecular target: T2, Sodium-dependent serotonin transporter; assay: Displacement of [3H]-citalopram from human serotonin transporter expressed in HEK 293 cells by scintillation proximity assay; format: cell-based, HEK293
[7] = molecular target: T3, 5-hydroxytryptamine receptor 1A (Homo sapiens) (UniProt P08908); assay: Intrinsic activity at human […] 5HT1A receptor expressed in HeLa cells by [3H]-thymidine uptake assay; format: cell-based
T3 sequence (whole entry): T1 sequence (P08908 whole entry)

Mus musculus [8] = assay: In vivo intrinsic activity at D2 receptor in mouse brain assessed as inhibition of gamma-butyrolactone-induced increase in DOPA synthesis at 30 mg/kg, po administered 60 mins before gamma-butyrolactone challenge measured after 30 mins; format: functional
Mus musculus [9] = assay: Antipsychotic activity in po dosed mouse assessed as inhibition of spontaneous locomotor activity; format: functional; details: for minimal effective dose: read-out: MED
Mus musculus [10] = assay: Induction of catalepsy in mouse at 10 mg/kg, po; format: organism-based; parameters: dose 10 mg/kg, route oral; details: in vivo
Mus musculus [11] = assay: Induction of catalepsy in mouse at 30 mg/kg, po; format: organism-based; parameters: dose 30 mg/kg, route oral; details: in vivo
Rattus norvegicus [12] = assay: Ex vivo D2 receptor occupancy in po dosed rat striatum assessed as inhibition [3H]-raclopride binding at 82 ng/ml plasma concentration; format: functional; parameters: scale not given: the % may be the effect or the level left
Rattus norvegicus [13] = assay: Ex vivo D2 receptor occupancy in po dosed rat striatum assessed as inhibition [3H]-raclopride binding at 243 ng/ml plasma concentration; format: functional; parameters: scale not given: the % may be the effect or the level left
[14] = Ratio of drug level in brain to plasma in po dosed rat; format: ADME, organism-based; details: read-out: BPR
Rattus norvegicus [15] = assay: Ex vivo D2 receptor occupancy in rat striatum assessed as inhibition [3H]-raclopride binding at 1 mg/kg, po; format: functional; parameters: scale not given: the % may be the effect or the level left
Rattus norvegicus [16] = assay: Ex vivo D2 receptor occupancy in rat striatum assessed as inhibition [3H]-raclopride binding at 30 mg/kg, po; format: functional; parameters: scale not given: the % may be the effect or the level left
[17] = molecular target: T3, 5-hydroxytryptamine receptor 1A (Homo sapiens); assay: Intrinsic activity at human […] 5HT1A receptor expressed in HeLa cells by FLIPR assay; format: cell-based
[18] = Apparent intrinsic clearance in human liver microsomes; format: ADME, Microsome
Rattus norvegicus [19] = assay: Ex vivo D2 receptor occupancy in po dosed rat striatum assessed as inhibition [3H]-raclopride binding at 47 ng/ml plasma concentration; format: functional; parameters: scale not given: the % may be the effect or the level left
Rattus norvegicus [20] = assay: Ex vivo D2 receptor occupancy in po dosed rat striatum assessed as inhibition [3H]-raclopride binding at 188 ng/ml plasma concentration; format: functional; parameters: scale not given: the % may be the effect or the level left

Chain of Voltage-gated inwardly rectifying potassium channel KCNH2 (Q12809 whole entry): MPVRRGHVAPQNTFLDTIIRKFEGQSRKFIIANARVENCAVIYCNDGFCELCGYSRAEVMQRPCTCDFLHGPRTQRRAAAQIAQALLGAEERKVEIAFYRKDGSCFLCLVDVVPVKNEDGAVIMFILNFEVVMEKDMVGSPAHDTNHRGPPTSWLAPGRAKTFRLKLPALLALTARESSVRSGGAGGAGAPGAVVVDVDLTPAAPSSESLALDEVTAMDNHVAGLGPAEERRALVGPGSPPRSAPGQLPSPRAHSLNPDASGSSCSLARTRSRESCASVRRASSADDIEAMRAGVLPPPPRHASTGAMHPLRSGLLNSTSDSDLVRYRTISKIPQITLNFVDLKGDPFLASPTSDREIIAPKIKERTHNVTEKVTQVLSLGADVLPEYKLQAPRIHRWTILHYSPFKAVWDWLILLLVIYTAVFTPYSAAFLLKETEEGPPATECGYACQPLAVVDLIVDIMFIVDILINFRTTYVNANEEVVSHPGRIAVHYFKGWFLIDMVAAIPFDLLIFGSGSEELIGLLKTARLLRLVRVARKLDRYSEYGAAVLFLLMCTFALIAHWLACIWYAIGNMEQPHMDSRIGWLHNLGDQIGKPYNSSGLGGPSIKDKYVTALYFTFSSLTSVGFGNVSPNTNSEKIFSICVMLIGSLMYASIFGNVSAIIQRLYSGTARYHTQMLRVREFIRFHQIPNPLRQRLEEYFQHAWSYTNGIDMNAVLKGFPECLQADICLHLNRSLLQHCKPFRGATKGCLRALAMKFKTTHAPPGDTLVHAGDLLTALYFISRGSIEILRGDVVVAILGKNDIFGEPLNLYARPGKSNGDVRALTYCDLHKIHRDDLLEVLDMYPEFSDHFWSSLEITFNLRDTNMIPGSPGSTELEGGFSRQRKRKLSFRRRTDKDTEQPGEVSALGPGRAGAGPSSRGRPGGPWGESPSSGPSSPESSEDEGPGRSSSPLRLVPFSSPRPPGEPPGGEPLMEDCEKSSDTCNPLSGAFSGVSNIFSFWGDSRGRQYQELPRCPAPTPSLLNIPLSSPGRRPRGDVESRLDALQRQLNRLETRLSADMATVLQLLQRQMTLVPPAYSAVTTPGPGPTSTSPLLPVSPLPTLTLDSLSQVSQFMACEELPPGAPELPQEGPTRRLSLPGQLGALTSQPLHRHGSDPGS
Chain of 5-hydroxytryptamine receptor 2A (P28223 whole entry): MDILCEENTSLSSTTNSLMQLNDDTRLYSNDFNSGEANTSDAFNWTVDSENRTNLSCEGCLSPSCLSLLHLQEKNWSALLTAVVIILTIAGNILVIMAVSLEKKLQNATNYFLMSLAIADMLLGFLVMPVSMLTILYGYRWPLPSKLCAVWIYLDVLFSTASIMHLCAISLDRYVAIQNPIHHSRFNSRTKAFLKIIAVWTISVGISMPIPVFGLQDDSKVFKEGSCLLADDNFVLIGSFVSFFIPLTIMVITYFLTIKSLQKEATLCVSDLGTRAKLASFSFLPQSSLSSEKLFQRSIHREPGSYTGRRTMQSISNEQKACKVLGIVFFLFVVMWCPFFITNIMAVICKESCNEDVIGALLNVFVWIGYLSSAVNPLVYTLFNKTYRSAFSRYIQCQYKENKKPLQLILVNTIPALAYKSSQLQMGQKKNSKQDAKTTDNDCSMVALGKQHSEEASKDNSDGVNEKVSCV

| SMILES | Ki [1] [nM] | Ki [3] [nM] | Ki [4] [nM] | Ki [5] [nM] | Ki [2] [nM] | further results |
| --- | --- | --- | --- | --- | --- | --- |
| O=C1NCc2ccc(OCCCN3CCN(c4cccc5cc(F)c(F)cc45)CC3)cc21 | 20.1 | 0.179 |  |  | 907 |  |
| c1ccc2c(N3CCN(CCCCOc4ccc5c(c4)CNC5)CC3)cccc2c1 | 5.07 | 0.204 |  |  | 1560 |  |
| O=C1NCc2ccc(OCCCN3CCN(c4cccc5ccc(F)cc45)CC3)c(F)c21 | 0.904 |  | < 0.205 | 1770 |  | Ki [6]: 447 nM |
| O=C1NCc2ccc(OCCCCN3CCN(c4cccc5cccc(F)c45)CC3)c(F)c21 | 0.568 |  | 2.09 | 57.2 |  | Ki [6]: 48.1 nM |
| Fc1ccc2cccc(N3CCN(CCCOc4ccc5c(c4)CNC5)CC3)c2c1 | 0.72 | 0.102 |  |  | 931 | Intrinsic activity [7]: 73.3% |
| O=C1NCc2ccc(OCCCCN3CCN(c4cccc5cc(F)ccc45)CC3)c(F)c21 | 3.07 |  | 5.01 | 2720 |  |  |
| c1ccc2c(N3CCN(CCCOc4ccc5c(c4)CNC5)CC3)cccc2c1 | 1.76 | 0.149 |  |  |  | Intrinsic activity [7]: 77.8% |
| O=C1NCc2ccc(OCCCN3CCN(c4cccc5cccc(F)c45)CC3)cc21 |  | 0.0141 |  |  | 1290 |  |
| Fc1ccc2cccc(N3CCN(CCCCOc4ccc5c(c4)CNC5)CC3)c2c1 | 0.483 | 0.243 |  |  | 1680 |  |
| O=C1NCc2ccc(OCCCCN3CCN(c4cccc5c4COCC5)CC3)cc21 | 5.44 | 0.279 |  |  |  |  |
| O=C1CCc2ccc(OCCCCN3CCN(c4cccc(Cl)c4Cl)CC3)cc2N1 [ARIPIPRAZOLE] |  |  |  |  |  | Intrinsic activity [17]: 43%; Intrinsic activity (Mus musculus [8]): 43%; minimal effective dose (Mus musculus [9]): 3 mg/kg; CLint scaled [18]: 31.7 mL/min/kg; Activity (Mus musculus [11]): Non-toxic |
| O=C1NCc2ccc(OCCCN3CCN(c4cccc5cc(F)ccc45)CC3)c(F)c21 | 5.41 |  | 3.04 | 37.4 |  | Ki [6]: 24.7 nM |
| O=C1NCc2ccc(OCCCCN3CCN(c4cccc5ccc(F)cc45)CC3)c(F)c21 | 2.1 |  | 4.56 | 259 |  |  |
| O=C1NCc2ccc(OCCCN3CCN(c4cccc5c4COCC5)CC3)cc21 | 11.1 | 0.108 |  |  |  |  |
| O=C1NCc2ccc(OCCCCN3CCN(c4cccc5c4CCOC5)CC3)cc21 |  | 1.99 |  |  |  |  |

The next lines start with results.

| Ki [1] [nM] | Ki [3] [nM] | Ki [4] [nM] | Ki [5] [nM] | SMILES | Ki [2] [nM] | further results |
| --- | --- | --- | --- | --- | --- | --- |
| 9.53 | 13.4 |  |  | O=C1NCc2ccc(OCCCCN3CCN(c4cccc5cc(F)ccc45)CC3)cc21 | 969 |  |
| 38.5 |  | 0.88 | 22.2 | O=C1NCc2cc(F)c(OCCCN3CCN(c4cccc5cc(F)ccc45)CC3)cc21 |  | Ki [6]: 9.22 nM |
| 11.4 | 0.838 |  |  | O=C1NCc2ccc(OCCCCN3CCN(c4cccc5ccc(F)cc45)CC3)cc21 |  |  |
| 2.68 |  | 0.341 | 13.6 | O=C1NCc2cc(F)c(OCCCN3CCN(c4cccc5ccc(F)cc45)CC3)cc21 |  | Ki [6]: 419 nM |
| 13.8 |  | 2.71 | 9.1 | O=C1NCc2cc(F)c(OCCCCN3CCN(c4cccc5cc(F)ccc45)CC3)cc21 |  | Ki [6]: 13 nM |
| 1.08 |  | 3.62 | 2520 | O=C1NCc2ccc(OCCCCN3CCN(c4cccc5ccccc45)CC3)c(F)c21 |  |  |
| 1.83 | 0.0504 | 0.951 | 26 | O=C1NCc2ccc(OCCCCN3CCN(c4cccc5cccc(F)c45)CC3)cc21 | 2060 | Intrinsic activity (Mus musculus [8]): 60%; Activity (Mus musculus [9]): Dose-dependent effect; minimal effective dose (Mus musculus [9]): 1 mg/kg; Activity (Mus musculus [10]): Non-toxic; Activity (Mus musculus [11]): Non-toxic; Activity (Rattus norvegicus [12]): 78.5%; Activity (Rattus norvegicus [13]): 92.3%; Kp [14]: 1.81; Activity (Rattus norvegicus [15]): 53%; Activity (Rattus norvegicus [16]): 99% |
| 13 |  | 0.637 | 30.8 | O=C1NCc2cc(F)c(OCCCCN3CCN(c4cccc5ccccc45)CC3)cc21 |  |  |
| 1.19 |  | < 0.521 | 15.6 | O=C1NCc2cc(F)c(OCCCN3CCN(c4cccc5cccc(F)c45)CC3)cc21 |  |  |
| 3.37 | 0.0447 |  |  | O=C1NCc2ccc(OCCCN3CCN(c4cccc5ccc(F)cc45)CC3)cc21 |  |  |
|  | 0.0152 | 0.541 |  | O=C1NCc2ccc(OCCCN3CCN(c4cccc5ccccc45)CC3)cc21 | 2810 | Intrinsic activity [7]: 88.8%; Intrinsic activity [17]: 65.9% |
| 3.54 | 1.54 |  |  | O=C1NCc2ccc(OCCCN3CCN(c4cccc5cc(F)ccc45)CC3)cc21 | 439 |  |
|  | 1.3 |  |  | O=C1NCc2ccc(OCCCCN3CCN(c4cccc5cc(F)c(F)cc45)CC3)cc21 |  |  |
| 32.1 |  | 0.671 | 54.6 | O=C1NCc2cc(F)c(OCCCN3CCN(c4cccc5ccccc45)CC3)cc21 |  |  |
| 2.21 |  | 0.128 | 84.7 | O=C1NCc2ccc(OCCCN3CCN(c4cccc5ccccc45)CC3)c(F)c21 |  |  |
| 10 |  | 1.77 | 110 | O=C1NCc2cc(F)c(OCCCCN3CCN(c4cccc5ccc(F)cc45)CC3)cc21 |  |  |
| 3.49 |  | 0.118 | 10.5 | O=C1NCc2cc(F)c(OCCCCN3CCN(c4cccc5cccc(F)c45)CC3)cc21 |  | Ki [6]: 42.6 nM |
| 4.95 | 0.151 | 2.22 | 16.5 | O=C1NCc2ccc(OCCCCN3CCN(c4cccc5ccccc45)CC3)cc21 | 1850 | Intrinsic activity [7]: 66.7%; Intrinsic activity (Mus musculus [8]): 43%; Ki [6]: 445 nM; Activity (Mus musculus [9]): Dose-dependent effect; minimal effective dose (Mus musculus [9]): 1 mg/kg; CLint scaled [18]: 23.7 mL/min/kg; Activity (Rattus norvegicus [19]): 80%; Activity (Rattus norvegicus [20]): 94%; Kp [14]: 2.49; Activity (Rattus norvegicus [15]): 55% |
